Test results reported in patent US20100160369A1, “S1P1 Agonists and Methods of Making And Using” (EXELIXIS, INC., priority 2008, published 2010).

biological target: S1P1 (Homo sapiens, UniProt P21453); test: Tango β-arrestin Recruitment Assay in U2OS cells (Assay 2b); assay type: cell-based; design: linker with TEV protease (N1a) cleavage site (C); conditions: Tango β-arrestin Recruitment Assay, footnote 1: Relative EC50 was measured, read-out: Assay 2b relative EC50
From the text: For the Tango™ β-arrestin recruitment assay, the cytoplasmic C-terminus of S1P1 is tethered to the tTA transcriptional activator with a linker that contains a cleavage site for the N1a protease from tobacco etch virus (TEV protease). The C-terminus of the human β-arrestin2 protein is fused to TEV protease. Binding of an agonist recruits the β-arrestin-TEV fusion protein to the receptor resulting in cleavage of the linker and release of tTA to enter the nucleus and subsequently activate a tTA-dependent luciferase reporter gene.
Alternatively, U2OS cells expressing the reporter gene and S1P1 (Invitrogen) were added to the wells of a 384-well white opaque bottom assay plate (PerkinElmer) at […] per well. The cells were serum starved for 48 h in Freestyle medium (Invitrogen). Test compounds were tested at maximum concentrations of 1 μM for the agonist assay. Compounds were diluted in DMSO (10 concentration points, 3-fold each) and added to the assay plate at a 1% final DMSO concentration. The efficacy control was 1 μM S1P (Avanti). For each compound, there were duplicate assay plates and each assay plate had duplicate wells per concentration point. The plate was incubated overnight at 37° C. The GeneBLAzer β-lactamase assay reagent (Invitrogen) was added and the plates were incubated for an additional 2 h at room temperature. Fluorescence was measured using an EnVision plate reader (PerkinElmer, Waltham, Mass.) at an excitation wavelength of 409 nm and emission wavelengths of 460 nm and 530 nm. The emission intensity at each wavelength was background subtracted against wells containing medium only and the F460 nm/F530 nm ratio determined for each concentration of the test compounds. Percent activity was calculated as [(test compound ratio−DMSO ratio)/(positive control ratio−DMSO ratio)*100], where the positive control and DMSO ratios are from cells incubated with the efficacy control 1 μM S1P and 1% DMSO, respectively. The percent activities were plotted against compound concentration to determine EC50 using XLFit (IDBS).
Assay 1 is the CNG cAMP Assay as described in Biological Example 1. Assay 2a and 2b are the Tango™ β-arrestin Recruitment Assay in HEK293 and U2OS cells, respectively, as described in Biological Example 2. Assay 3a is the hS1P1R GTPγS Binding Assay as described in Biological Example 3. Assay 3b is the GTP-Eu Binding Assay as described in Biological Example 3. EC50's were measured unless otherwise noted. […] In the table, “nt” means the Compound was not tested and “no” means the compound was tested but had no measurable activity under the assay conditions employed.

Chain of S1P1 (P21453 whole entry, the tested form may be a part): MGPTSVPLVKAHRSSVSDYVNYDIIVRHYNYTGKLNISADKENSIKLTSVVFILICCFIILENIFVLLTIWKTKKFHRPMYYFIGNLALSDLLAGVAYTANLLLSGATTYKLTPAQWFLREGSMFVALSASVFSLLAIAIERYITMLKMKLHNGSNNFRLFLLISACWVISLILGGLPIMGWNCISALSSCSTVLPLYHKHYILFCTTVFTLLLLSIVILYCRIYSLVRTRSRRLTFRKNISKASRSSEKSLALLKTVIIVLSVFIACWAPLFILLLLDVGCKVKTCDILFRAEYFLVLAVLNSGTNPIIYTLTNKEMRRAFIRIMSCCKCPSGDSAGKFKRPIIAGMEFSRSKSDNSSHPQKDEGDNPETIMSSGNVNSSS
Chain of S1P1 (P32121 whole entry partner, the tested form may be a part): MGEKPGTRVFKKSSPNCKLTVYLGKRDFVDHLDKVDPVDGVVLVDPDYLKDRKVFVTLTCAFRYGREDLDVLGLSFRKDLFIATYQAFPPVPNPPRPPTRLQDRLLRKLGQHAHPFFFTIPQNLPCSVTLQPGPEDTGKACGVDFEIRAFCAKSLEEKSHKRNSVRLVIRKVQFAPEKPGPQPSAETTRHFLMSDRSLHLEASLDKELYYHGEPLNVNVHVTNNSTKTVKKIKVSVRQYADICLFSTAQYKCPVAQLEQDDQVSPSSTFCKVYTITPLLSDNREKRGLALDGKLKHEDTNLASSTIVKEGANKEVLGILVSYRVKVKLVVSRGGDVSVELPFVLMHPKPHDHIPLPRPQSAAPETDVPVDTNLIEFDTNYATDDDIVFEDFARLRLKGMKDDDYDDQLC

Structure (SMILES) | EC50 [nM]
CC(N)COc1cc(Cl)c(-c2nnc(-c3cn4cc(C(F)(F)F)ccc4n3)s2)cc1Cl (stereo not shown) [Example 340, 1-[(2,5-dichloro-4-{5-[6-(trifluoromethyl)imidazo[1,2-a]pyridin-2-yl]-1,3,4-thiadiazol-2-yl}phenyl)oxy]propan-2-amine] | 5000 to 10000
CC(N)COc1cc(Cl)c(-c2nnc(-c3cn4cc(C(F)(F)F)cc(Cl)c4n3)s2)cc1F (stereo not shown) [Example 298, 1-[(5-chloro-4-{5-[8-chloro-6-(trifluoromethyl)imidazo[1,2-a]pyridin-2-yl]-1,3,4-thiadiazol-2-yl}-2-fluorophenyl)pxy]propan-2-amine] | 100 to 500

same assay, conditions: Tango β-arrestin Recruitment Assay, read-out: Assay 2b EC50

Structure (SMILES) | EC50 [nM]
CC(O)COc1cc(Cl)c(-c2nc(-c3cn4cc(C(F)(F)F)cc(Cl)c4n3)no2)cc1F (stereo not shown) [Example 184, 1-[(5-chloro-4-{3-[8-chloro-6-(trifluoromethyl)imidazo[1,2-a]pyridin-2-yl]-1,2,4-oxadiazol-5-yl}-2-fluorophenyl)oxy]propan-2-ol] | ≤ 100
CC(O)CCc1cc(Cl)c(-c2noc(-c3cn4cc(C(F)(F)F)cc(Cl)c4n3)n2)cc1Cl (stereo not shown) [Example 185, 4-(2,5-dichloro-4-{5-[8-chloro-6-(trifluoromethyl)imidazo[1,2-a]pyridin-2-yl]-1,2,4-oxadiazol-3-yl}phenyl)butan-2-ol] | ≤ 100
NC(CO)COc1cc(Cl)c(-c2nnc(-c3cn4cc(I)ccc4n3)s2)cc1F (stereo not shown) [Example 102, 2-amino-3-({5-chloro-2-fluoro-4-[5-(6-iodoimidazo[1,2-a]pyridin-2-yl)-1,3,4-thiadiazol-2-yl]phenyl}oxy)propan-1-ol] | ≤ 100
NC(COc1cc(Cl)c(-c2nnc(-c3cn4cc(C(F)(F)F)cc(Cl)c4n3)s2)cc1F)COP(=O)(O)O (stereo not shown) [Example 82, 2-amino-3-[(5-chloro-4-{5-[8-chloro-6-(trifluoromethyl)imidazo[1,2-a]pyridin-2-yl]-1,3,4-thiadiazol-2-yl}-2-fluorophenyl)oxy]propyl dihydrogen phosphate] | ≤ 100
Nc1cc(Cl)c(-c2noc(-c3cn4cc(C(F)(F)F)cc(Cl)c4n3)n2)cc1Cl [Example 337, 2,5-dichloro-4-{5-[8-chloro-6-(trifluoromethyl)imidazo[1,2-a]pyridin-2-yl]-1,2,4-oxadiazol-3-yl}aniline] | 100 to 500
NC(COc1cc(Cl)c(-c2noc(-c3cn4cc(C(F)(F)F)cc(Cl)c4n3)n2)cc1Cl)COP(=O)(O)O (stereo not shown) [Entry 15] | ≤ 100
N[C@H](CO)COc1cc(Cl)c(-c2nnc(-c3cn4cc(C(F)(F)F)cc(Cl)c4n3)s2)cc1Cl [Example 420, (2R)-2-amino-3-[(2,5-dichloro-4-{5-[8-chloro-6-(trifluoromethyl)imidazo[1,2-a]pyridin-2-yl]-1,3,4-thiadiazol-2-yl}phenyl)oxy]propan-1-ol] | 100 to 500
CC(O)COc1cc(Cl)c(-c2nnc(-c3cn4cc(C(F)(F)F)cc(Cl)c4n3)o2)cc1F (stereo not shown) [Example 179, 1-[(5-chloro-4-{5-[8-chloro-6-(trifluoromethyl)imidazo[1,2-a]pyridin-2-yl]-1,3,4-oxadiazol-2-yl}-2-fluorophenyl)oxy]propan-2-ol] | 100 to 500
Cc1cc(CCC(=O)O)c(Cl)cc1-c1nc(-c2cn3cc(I)cc(Cl)c3n2)no1 [Example 297, 3-{2-chloro-4-[3-(8-chloro-6-iodoimidazo[1,2-a]pyridin-2-yl)-1,2,4-oxadiazol-5-yl]-5-methylphenyl}propanoic acid] | ≤ 100
OCC(F)(F)COc1cc(Cl)c(-c2noc(-c3cn4cc(C(F)(F)F)cc(Cl)c4n3)n2)cc1Cl [Example 311, 3-[(2,5-dichloro-4-{5-[8-chloro-6-(trifluoromethyl)imidazo[1,2-a]pyridin-2-yl]-1,2,4-oxadiazol-3-yl}phenyl)oxy]-2,2-difluoropropan-1-ol] | ≤ 100
NC(CO)COc1cc(Cl)c(-c2nnc(-c3cn4cc(C(F)(F)F)cc(Cl)c4n3)s2)cc1Cl (stereo not shown) [Example 220, 2-amino-3-[(2,5-dichloro-4-{5-[8-chloro-6-(trifluoromethyl)imidazo[1,2-a]pyridin-2-yl]-1,3,4-thiadiazol-2-yl}phenyl)oxy]propan-1-ol] | ≤ 100
O=P(O)(O)OC(CO)COc1cc(Cl)c(-c2noc(-c3cn4cc(C(F)(F)F)cc(Cl)c4n3)n2)cc1Cl (stereo not shown) [Entry 9] | ≤ 100
O=C(O)C1CC1c1cc(Cl)c(-c2noc(-c3cn4cc(C(F)(F)F)cc(Cl)c4n3)n2)cc1Cl (stereo not shown) [Example 211, 2-(2,5-dichloro-4-{5-[8-chloro-6-(trifluoromethyl)imidazo[1,2-a]pyridin-2-yl]-1,2,4-oxadiazol-3-yl}phenyl)cyclopropanecarboxylic acid] | ≤ 100
O=C(O)C1CC1c1cc(Cl)c(-c2nc(-c3cn4cc(C(F)(F)F)cc(Cl)c4n3)no2)cc1Cl (stereo not shown) [Example 299, 2-(2,5-dichloro-4-{3-[8-chloro-6-(trifluoromethyl)imidazo[1,2-a]pyridin-2-yl]-1,2,4-oxadiazol-5-yl}phenyl)cyclopropanecarboxylic acid] | 100 to 500
O=C(O)C1CC1c1cc(Cl)c(-c2nnc(-c3cn4cc(C(F)(F)F)cc(Cl)c4n3)s2)cc1Cl (stereo not shown) [Example 320, 2-(2,5-dichloro-4-{5-[8-chloro-6-(trifluoromethyl)imidazo[1,2-a]pyridin-2-yl]-1,3,4-thiadiazol-2-yl}phenyl)cyclopropanecarboxylic acid] | ≤ 100
N[C@@H](CO)COc1cc(Cl)c(-c2nnc(-c3cn4cc(C(F)(F)F)cc(Cl)c4n3)s2)cc1F [Example 335, (2S)-2-Amino-3-[(5-chloro-4-{5-[8-chloro-6-(trifluoromethyl)imidazo[1,2-a]pyridin-2-yl]-1,3,4-thiadiazol-2-yl}-2-fluorophenyl)oxy]propan-1-ol] | ≤ 100
O=P(O)(O)OCC(O)COc1cc(Cl)c(-c2noc(-c3cn4cc(C(F)(F)F)cc(Cl)c4n3)n2)cc1Cl (stereo not shown) [Entry 53] | ≤ 100
NC(CO)COc1cc(Cl)c(-c2nnc(-c3cn4cc(Cl)ccc4n3)s2)cc1F (stereo not shown) [Example 101, 2-amino-3-({5-chloro-4-[5-(6-chloroimidazo[1,2-a]pyridin-2-yl)-1,3,4-thiadiazol-2-yl]-2-fluorophenyl}oxy)propan-1-ol] | ≤ 100
O=C(CO)COc1cc(Cl)c(-c2noc(-c3cn4cc(C(F)(F)F)cc(Cl)c4n3)n2)cc1Cl [Entry 34] | ≤ 100
OCCNc1cc(Cl)c(-c2noc(-c3cn4cc(C(F)(F)F)cc(Cl)c4n3)n2)cc1F [Example 308, 2-[(5-chloro-4-{5-[8-chloro-6-(trifluoromethyl)imidazo[1,2-a]pyridin-2-yl]-1,2,4-oxadiazol-3-yl}-2-fluorophenyl)amino]ethanol] | ≤ 100
OCC(CO)Oc1cc(Cl)c(-c2noc(-c3cn4cc(C(F)(F)F)cc(Cl)c4n3)n2)cc1Cl [Example 307, 2-[(2,5-dichloro-4-{5-[8-chloro-6-(trifluoromethyl)imidazo[1,2-a]pyridin-2-yl]-1,2,4-oxadiazol-3-yl}phenyl)oxy]propane-1,3-diol] | ≤ 100
CC(O)COc1cc(Cl)c(-c2nc(-c3cn4cc(C(F)(F)F)cc(Cl)c4n3)no2)cc1Cl (stereo not shown) [Example 178, 1-[(2,5-dichloro-4-{3-[8-chloro-6-(trifluoromethyl)imidazo[1,2-a]pyridin-2-yl]-1,2,4-oxadiazol-5-yl}phenyl)oxy]propan-2-ol] | ≤ 100
CS(=O)(=O)COc1cc(Cl)c(-c2noc(-c3cn4cc(C(F)(F)F)cc(Cl)c4n3)n2)cc1Cl [Entry 12] | ≤ 100
C[C@@H](COc1cc(Cl)c(-c2noc(-c3cn4cc(C(F)(F)F)cc(Br)c4n3)n2)cc1Cl)OP(=O)(O)O [Example 325, (1S)-2-[(4-{5-[8-bromo-6-(trifluoromethyl)imidazo[1,2-a]pyridin-2-yl]-1,2,4-oxadiazol-3-yl}-2,5-dichlorophenyl)oxy]-1-methylethyl dihydrogen phosphate] | ≤ 100
CS(=O)(=O)NCc1ccc(-c2nnc(-c3cn4cc(C(F)(F)F)cc(Cl)c4n3)s2)c(Cl)c1 [Example 332, N-[(3-chloro-4-{5-[8-chloro-6-(trifluoromethyl)imidazo[1,2-a]pyridin-2-yl]-1,3,4-thiadiazol-2-yl}phenyl)methyl]methanesulfonamide] | ≤ 100

same assay, conditions: Tango β-arrestin Recruitment Assay, relative EC50 was measured (footnote 1), read-out: Assay 2b Relative EC50

Structure (SMILES) | EC50 [nM]
CC(C)(CO)Oc1cc(Cl)c(-c2noc(-c3cn4cc(C(F)(F)F)cc(Cl)c4n3)n2)cc1Cl [Entry 26] | 100 to 500
